Test results reported in patent US8846636B2, “Nucleoside analogues with quaternary carbon stereogenic centers and methods of use” (LCB Pharma Inc., priority 2008, dated 2014).

Experiments:
Format in all cases: cell-based
MCF7 = experiment: MTT cell proliferation assay, MCF7; conditions: MCF7 cell line (mammary gland; breast)
Protocol: (§1) The antiviral and antitumor activities of the compounds of the invention were evaluated by a cellular proliferation assay. The MTT [3-(4,5-dimethylthiazol-2-yl)-2,5-diphenyltetrazolium bromide] assay, first described by Mosmann (Mosmann T., “Rapid colorimetric assay for cellular growth and survival: application to proliferation and cytotoxicity assays,” J. Immunol. Methods 1983 Dec. 16; 65(1-2):55-63, and incorporated by reference in its entirety) is based on the ability of a mitochondrial dehydrogenase enzyme from viable cells to cleave the tetrazolium rings of the pale yellow MTT. The cleavage reaction form a dark blue formazan crystals which is largely impermeable to cell membranes and accumulation within healthy cells. Solubilisation of the cells by the addition of a detergent liberates and solubilizes the crystals. The number of surviving cells is directly proportional to the level of the formazan product created. The color can then be quantified using a simple colorimetric assay. The results can be read on a multiwell scanning spectrophotometer (ELISA reader).
(§2) In Tables 1 and 2, IC50 values are presented for various cell lines in micromolar units (μm), “Gemci” is Gemcitabine, and “5-FU” is 5-fluorouracil.

786-O = experiment: MTT cell proliferation assay, 786-O; conditions: 786-O cell line (kidney)
Protocol: as §1, §2

HCT 116 = experiment: MTT cell proliferation assay, HCT 116; conditions: HCT 116 cell line (colon)
Protocol: as §1, §2

PFSK-1 = experiment: MTT cell proliferation assay, PFSK-1; conditions: PFSK-1 cell line (brain)
Protocol: as §1, §2

HL-60 = experiment: MTT cell proliferation assay, HL-60; conditions: HL-60 cell line (acute promyelocytic leukemia)
Protocol: as §1, §2

1A6 = experiment: MTT cell proliferation assay, 1A6; conditions: 1A6 cell line (urinary bladder)
Protocol: as §1, §2

ZR-75-1 = experiment: MTT cell proliferation assay, ZR-75-1; conditions: ZR-75-1 cell line (mammary gland; breast)
Protocol: as §1, §2

DLD-1 = experiment: MTT cell proliferation assay, DLD-1; conditions: DLD-1 cell line (colon)
Protocol: as §1, §2

MOLT-4 = experiment: MTT cell proliferation assay, MOLT-4
Protocol: as §1, §2

HCC1143 = experiment: MTT cell proliferation assay, HCC1143; conditions: HCC1143 cell line (mammary gland; breast)
Protocol: as §1, §2

BxPC-3 = experiment: MTT cell proliferation assay, BxPC-3; conditions: BxPC-3 cell line (pancreas)
Protocol: as §1, §2

OVCAR3 = experiment: MTT cell proliferation assay, OVCAR3; conditions: OVCAR3 cell line (ovary)
Protocol: as §1, §2

NCI H1395 = experiment: MTT cell proliferation assay, NCI H1395
Protocol: as §1, §2

22Rv1 = experiment: MTT cell proliferation assay, 22Rv1; conditions: 22Rv1 cell line (prostate)
Protocol: as §1, §2

Colo 829 = experiment: MTT cell proliferation assay, Colo 829; conditions: Colo 829 cell line (skin)
Protocol: as §1, §2

NCI H2052 = experiment: MTT cell proliferation assay, NCI H2052; conditions: NCI H2052 cell line (tumor stage 4 derived from pleural effusion)
Protocol: as §1, §2

[1] = Homo sapiens, MOLT-4, MOLT-4 cell line (acute lymphoblastic leukemia)
[2] = Homo sapiens, NCI-H1395, NCI H1395 cell line (lung)

Molecule	IC50 (MCF7; Homo sapiens)	IC50 (786-O; Homo sapiens, 786-0)	IC50 (HCT 116; Homo sapiens)	IC50 (HL-60; Homo sapiens)	IC50 (DLD-1; Homo sapiens)	IC50 (MOLT-4; [1])	IC50 (HCC1143; Homo sapiens)	IC50 (BxPC-3; Homo sapiens)	IC50 (OVCAR3; Homo sapiens, OVCAR-3)	IC50 (22Rv1; Homo sapiens)	IC50 (Colo 829; Homo sapiens)	IC50 (PFSK-1; Homo sapiens)	IC50 (1A6)	IC50 (ZR-75-1; Homo sapiens)	IC50 (NCI H1395; [2])	IC50 (NCI H2052; Homo sapiens)	further results
C[C@]1(C(N)=O)[C@H](O)[C@@H](n2ccc(N)nc2=O)O[C@@H]1CO [LCB-1087, (2S,3S,4S,5S)-5-(4-amino-2-oxopyrimidin-1(2H)-yl)-4-hydroxy-2-(hydroxymethyl)-3-methyltetrahydrofuran-3-carboxamide]	> 500 µM	> 500 µM	> 500 µM	> 500 µM	> 500 µM	> 500 µM	> 500 µM	> 500 µM	> 500 µM	> 500 µM	> 500 µM	> 500 µM	> 500 µM	> 500 µM	> 500 µM		
C[C@]1(CO)C(O)[C@H](n2ccc(N)nc2=O)O[C@@H]1CO (stereo partly shown) [compound 1056]	> 500 µM	> 500 µM	> 500 µM	> 500 µM	> 500 µM		> 500 µM	> 500 µM	> 500 µM		> 500 µM	> 500 µM	> 500 µM	> 500 µM	440 µM	> 500 µM	
((2S,3S,4R,5R)-5-(2-amino-6-chloro-9H-purin-9-yl)-4-hydroxy-3-methyltetrahydrofuran-2,3-diyl)dimethanol (A), ((2S,3S,4R,5R)-5-(6-amino-2-chloro-9H-purin-9-yl)-4-hydroxy-3-methyltetrahydrofuran-2,3-diyl)dimethanol (B) [LCB-1094]													> 500 µM				IC50 (MCF7): > 500 µM; IC50 (786-O): > 500 µM; IC50 (HCT 116): > 500 µM; IC50 (PFSK-1): > 500 µM; IC50 (HL-60): > 500 µM; IC50 (ZR-75-1): > 500 µM; IC50 (DLD-1): > 500 µM; IC50 (MOLT-4; MOLT-4 cell line (acute lymphoblastic leukemia)): > 500 µM; IC50 (HCC1143): > 500 µM; IC50 (BxPC-3): > 500 µM; IC50 (OVCAR3): > 500 µM; IC50 (NCI H1395; NCI H1395 cell line (lung)): > 500 µM; IC50 (22Rv1): > 500 µM; IC50 (NCI H2052): > 500 µM; IC50 (Colo 829): > 500 µM
C[C@@]1(CO)[C@@H](CO)O[C@@H](n2cc(F)c(N)nc2=O)[C@@H]1O [LCB-1096, 4-amino-5-fluoro-1-((2R,3R,4S,5S)-3-hydroxy-4,5-bis(hydroxymethyl)-4-methyltetrahydrofuran-2-yl)pyrimidin-2(1H)-one]	> 500 µM	> 500 µM	> 500 µM	> 500 µM	> 500 µM	> 500 µM	> 500 µM	> 500 µM	> 500 µM	> 500 µM	> 500 µM	> 500 µM	> 500 µM	> 500 µM	> 500 µM	> 500 µM	
C[C@]1(C(=O)NN)[C@@H](CO)O[C@@H](n2cc(F)c(N)nc2=O)[C@@H]1O [LCB-1085, (2S,3R,4R,5R)-5-(4-amino-5-fluoro-2-oxopyrimidin-1(2H)-yl)-4-hydroxy-2-(hydroxymethyl)-3-methyltetrahydrofuran-3-carbohydrazide]	> 100 µM	> 100 µM	> 100 µM	> 100 µM	> 100 µM	80 µM	> 100 µM	> 100 µM	> 100 µM	> 100 µM	> 100 µM	> 100 µM	> 100 µM	> 100 µM	> 100 µM	> 100 µM	
C[C@@]1(CO)[C@@H](CO)O[C@@H](n2ccc(N)nc2=O)[C@@H]1O [LCB-1095, 4-amino-1-((2R,3R,4S,5S)-3-hydroxy-4,5-bis(hydroxymethyl)-4-methyltetrahydrofuran-2-yl)pyrimidin-2(1H)-one]	430 µM	> 500 µM	> 500 µM	> 500 µM	> 500 µM	> 500 µM	> 500 µM	> 500 µM	> 500 µM	> 500 µM	460 µM	> 500 µM	> 500 µM	> 500 µM	> 500 µM	> 500 µM	
CC1(CO)C(O)C(n2cnc3c(N)nc(Cl)nc32)O[C@@H]1CO (stereo in doubt) [LCB-1091, ((2S,3R,4R,5R)-5-(6-amino-2-chloro-9H-purin-9-yl)-4-hydroxy-3-methyltetrahydrofuran-2,3-diyl)dimethanol]	> 500 µM	> 500 µM	> 500 µM	> 500 µM	> 500 µM	> 500 µM	> 500 µM	> 500 µM	> 500 µM	> 500 µM	> 500 µM	> 500 µM	> 500 µM	> 500 µM	> 500 µM	> 500 µM	
CCOC(=O)C1(C)[C@@H](CO)O[C@H](n2cnc3c(NN)nc(NN)nc32)[C@@H]1O (stereo partly shown) [LCB-1086]	> 100 µM	> 100 µM	> 100 µM	> 100 µM	> 100 µM	> 100 µM	> 100 µM	90 µM	> 100 µM	> 100 µM	> 100 µM	98 µM	> 100 µM	> 100 µM	> 100 µM		

Continued, in another order:

IC50 (MCF7; Homo sapiens)	IC50 (786-O; Homo sapiens, 786-0)	IC50 (HCT 116; Homo sapiens)	IC50 (HL-60; Homo sapiens)	IC50 (DLD-1; Homo sapiens)	IC50 (MOLT-4; [1])	IC50 (HCC1143; Homo sapiens)	IC50 (BxPC-3; Homo sapiens)	IC50 (OVCAR3; Homo sapiens, OVCAR-3)	IC50 (22Rv1; Homo sapiens)	IC50 (Colo 829; Homo sapiens)	Molecule	IC50 (PFSK-1; Homo sapiens)	IC50 (1A6)	IC50 (ZR-75-1; Homo sapiens)	IC50 (NCI H1395; [2])	IC50 (NCI H2052; Homo sapiens)	further results
40 µM	110 µM	25 µM	25 µM	470 µM	20 µM	340 µM	220 µM	35 µM	50 µM	170 µM	O=c1[nH]cc(F)c(=O)[nH]1 [5-FU, 5-fluorouracil, reference compound]	460 µM	300 µM	> 500 µM	> 500 µM	> 500 µM	
280 µM	460 µM	410 µM	250 µM	440 µM	260 µM	480 µM	160 µM	280 µM			CC12C(=O)OC[C@H]1O[C@@H](n1ccc(N)nc1=O)C2O (mixture of isomers) [LCB-1079, 4-amino-1-((2R,3R,3αR,6αS)-3-hydroxy-3α-methyl-4-oxohexahydrofuro[3,4-β]furan-2-yl)pyrimidin-2(1H)-one]	130 µM	350 µM	380 µM	> 500 µM	310 µM	
> 500 µM	> 500 µM		> 500 µM	> 500 µM	> 500 µM	> 500 µM				> 500 µM	CC1(CO)C(O)C(n2cc(F)c(N)nc2=O)O[C@@H]1CO (stereo partly drawn) [LCB-1082, 4-amino-5-fluoro-1-((2S,3S,4S,5S)-3-hydroxy-4,5-bis(hydroxymethyl)-4-methyltetrahydrofuran-2-yl)pyrimidin-2(1H)-one; 4-amino-5-fluoro-1-((2R,3R,4S,5S)-3-hydroxy-4,5-bis(hydroxymethyl)-4-methyltetrahydrofuran-2-yl)pyrimidin-2(1H)-one]	> 500 µM	> 500 µM	> 500 µM	> 500 µM	> 500 µM	
> 500 µM	> 500 µM		> 500 µM	> 500 µM	> 500 µM	> 500 µM				> 500 µM	CC12C(=O)OC[C@H]1O[C@@H](n1cc(F)c(N)nc1=O)C2O (mixture of isomers) [LCB-1080, 4-amino-5-fluoro-1-((2R,3R,3αR,6αS)-3-hydroxy-3α-methyl-4-oxohexahydrofuro[3,4-β]furan-2-yl)pyrimidin-2(1H)-one]	> 500 µM	> 500 µM	> 500 µM	> 500 µM	> 500 µM	
